Assays:
[1] = system: Asian Soybean Rust (Phakopsora pachyrhizi); test: Field trial, Asian Soybean Rust severity on soybean; type: in vivo
Protocol: (§1) In this example, diseased soybeans having Asian Soybean Rust (Phakopsora pachyrhizi) were treated with BAG8 and Azoxystrobin. Testing was performed to assess the fungicidal effect of the compounds on Asian Soybean Rust and to assess the growth enhancing effects of the compounds on the diseased soybeans.
(§2) Soybeans were planted into 6×30 ft plots and replicated four times in a randomized complete block design. Two treatments and an untreated control were tested for efficacy against Asian Soybean Rust (Phakopsora pachyrhizi) and assessed for yield at the conclusion of the growing season. Foliar applications of the two treatments, BAG8 at 0.25 pounds of active ingredient per acre and azoxystrobin at 0.25 pounds of active ingredient per acre, were applied to the plots at two separate times: growth stage R1 (flowering) and growth stage R3 (bean pod formation). Best practices were used consistently across the test plots with regard to field conditions such as fertilization, insect control, weed control, and irrigation. Disease assessments were taken in each plot 28 days after the final foliar fungicide application. At maturity, each plot was harvested using standard harvesting equipment. After shelling, the beans were weighed at 13% moisture and yield calculations extrapolated to bushels per acre.
(§3) Analysis of variance (ANOVA) was used to examine disease severity data and means were separated using Fisher's least significant difference (LSD) method at α=0.05. […]

diseased soybeans = test: Field trial, yield of diseased soybeans; type: in vivo, soybean
Protocol: as §1, §2, §3

[2] = system: Southern Rust of Maize (Puccinia polysora); test: Field trial, Southern Rust of Maize severity on maize; type: in vivo
Protocol: (§4) In this example, diseased maize having Southern Rust of Maize (Puccinia polysora) was treated with BAG8, Azoxystrobin, and Boscalid. Testing was performed to assess the fungicidal effect of the compounds on Southern Rust of Maize (Puccinia polysora) and to assess the growth enhancing effect of the compounds on the diseased maize.
(§5) Maize was planted into 6×30 ft plots and replicated four times in a randomized complete block design. Three treatments and an untreated control were tested for efficacy against Southern Rust of Maize (Puccinia polysora) and assessed for yield at the conclusion of the growing season. Foliar applications of the three treatments, BAG8 at 0.25 pounds of active ingredient per acre, azoxystrobin at 0.25 pounds of active ingredient per acre, and boscalid at 0.24 pounds of active ingredient per acre, were applied to the plots at growth stage V8. Best practices were used consistently across the test plots with regard to field conditions such as fertilization, insect control, weed control, and irrigation. Disease assessments were taken in each plot 28 days after the foliar fungicide application. At maturity, each plot was harvested using standard harvesting equipment. After shelling, the kernels were weighed at 11% moisture and yield calculations extrapolated to bushels per acre.
as §3

diseased maize = test: Field trial, yield of diseased maize; type: in vivo; details: for Yield: 11% moisture
Protocol: as §4, §5, §3

Tomato = details: Davis et al. 2003, cited from earlier work

## CO/C=C(/C(=O)OC)c1ccccc1Oc1cc(Oc2ccccc2C#N)ncn1 [Azoxystrobin, reference compound]
[1]; 0.25 lb ai/A foliar
  reduced disease in comparison to untreated control: 66%
[1]; 0.25 lb ai/A foliar at R1 and R3, 28 days after final application
  Disease Severity (% Leaf Coverage): 30.6 d % Leaf Coverage
Diseased soybeans; 0.25 lb ai/A foliar
  increased soybean yield: 305%
Diseased soybeans; 0.25 lb ai/A foliar at R1 and R3, harvest at maturity, 13% moisture
  Yield: 59.2 a bu/A
[2]; 0.25 lb ai/A foliar
  reduced disease relative to the untreated control: 100%
[2]; 0.25 lb ai/A foliar at V8, 28 days after application
  Disease Severity (% Leaf Coverage): 0.0 c % Leaf Coverage
Diseased maize; 0.25 lb ai/A foliar
  increased yield relative to untreated control: 205%
Diseased maize; 0.25 lb ai/A foliar at V8, harvest at maturity
  Yield: 151.1 a bu/A

## O=C(Nc1ccccc1-c1ccc(Cl)cc1)c1cccnc1Cl [Boscalid]
[2]; 0.24 lb ai/A foliar at V8, 28 days after application
  Disease Severity (% Leaf Coverage): 25.1 b % Leaf Coverage
Diseased maize; 0.24 lb ai/A foliar at V8, harvest at maturity
  Yield: 91.6 c bu/A

## OB(O)O [boric acid]
Tomato
  yield and shelf-life of harvested tomatoes: higher yield and longer shelf-life for harvested tomatoes
Tomato; hydroponic fertilizer
  growth of the plant: increased growth of the plant, plant parts, and plant propagation materials
